Drawing on PubChem BioAssay AID1919005 (Molecular Pharmacology Branch, DTP, NCI, 2023), this text covers IC50 and viability, T/C for five molecules.

Molecules are shown by their SMILES. Values joined by “and” are separate entries in the source; they are usually repeats but may differ in a detail not shown here. Equal entries are not always repeated.

This assay has as its system 855422-203-R-J1-PDC complex spheroid growth. In words: Anticancer human tumor 855422-203-R-J1-PDC patient-derived bladder carcinoma cell line growth inhibition [AhR]. The following applies: for viability, T/C: stronger effect = lower value. In outline:
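Spheroids combined tumor cells with HUVEC endothelial cells and human MSCs as stroma. AhR antagonists were paired with standard or investigational drugs, each dosed in half-log steps down from near clinical Cmax, or from 10 microM where Cmax was unknown.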

The mark [1] stands for this setting: curve of first compound, second compound 0.1 µM.
Setting [2] is: curve of first compound, second compound 0.316 µM.
[3] abbreviates: curve of first compound, second compound 1 µM.
[4] abbreviates: curve of first compound, second compound 3.16 µM.
Setting [5] is: curve of first compound, second compound 10 µM.
Setting [6] is: second compound 0.1 µM, first compound 0.0316 µM.
Where [7] appears, read: second compound 0.1 µM, first compound 0.1 µM.
Where [8] appears, read: second compound 0.1 µM, first compound 0.316 µM.
[9] abbreviates: second compound 0.1 µM, first compound 1 µM.
Setting [10] is: second compound 0.1 µM, first compound 3.16 µM.
[11] abbreviates: second compound 0.1 µM, first compound 10 µM.
Where [12] appears, read: second compound 0.316 µM, first compound 0.0316 µM.
Where [13] appears, read: second compound 0.316 µM, first compound 0.1 µM.
[14] abbreviates: second compound 0.316 µM, first compound 0.316 µM.
Setting [15] is: second compound 0.316 µM, first compound 1 µM.
[16] abbreviates: second compound 0.316 µM, first compound 3.16 µM.
Setting [17] is: second compound 0.316 µM, first compound 10 µM.
Setting [18] is: second compound 1 µM, first compound 0.0316 µM.
Setting [19] is: second compound 1 µM, first compound 0.1 µM.
Setting [20] is: second compound 1 µM, first compound 0.316 µM.
Where [21] appears, read: second compound 1 µM, first compound 1 µM.
[22] abbreviates: second compound 1 µM, first compound 3.16 µM.
[23] abbreviates: second compound 1 µM, first compound 10 µM.
Setting [24] is: second compound 3.16 µM, first compound 0.0316 µM.
The mark [25] stands for this setting: second compound 3.16 µM, first compound 0.1 µM.
[26] abbreviates: second compound 3.16 µM, first compound 0.316 µM.
[27] abbreviates: second compound 3.16 µM, first compound 1 µM.
The mark [28] stands for this setting: second compound 3.16 µM, first compound 3.16 µM.
The mark [29] stands for this setting: second compound 3.16 µM, first compound 10 µM.
[30] abbreviates: second compound 10 µM, first compound 0.0316 µM.
The mark [31] stands for this setting: second compound 10 µM, first compound 0.1 µM.
Setting [32] is: second compound 10 µM, first compound 0.316 µM.
Where [33] appears, read: second compound 10 µM, first compound 1 µM.
[34] abbreviates: second compound 10 µM, first compound 3.16 µM.
[35] abbreviates: second compound 10 µM, first compound 10 µM.
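Note: spheroids exposed to agents for seven days before readout.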
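Throughout, for viability, T/C: percent of DMSO vehicle control luminescence viability.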

One may read the IC50 as the concentration that gives 50% inhibition. A word on the viability, T/C: it is the ratio of treated to control. Turning to `Nc1ncn(C2CC(O)C(CO)S2)c(=O)n1` (centres undefined) + Cc1ccccc1N=Nc1ccc(NC(=O)c2ccnn2C)c(C)c1, the IC50 under setting [1] was over 0.3 µM; the half-inhibitory concentration (IC50) under setting [2] was over 0.3 µM; the half-maximal inhibitory concentration (IC50) under setting [3] was over 0.3 µM; the IC50 under setting [4] is over 0.3 µM; the IC50 under setting [5] was over 0.3 µM. The viability, T/C is, setting by setting: (second compound 0.1 µM, first compound 0.000949 µM) 99.8%; (second compound 0.1 µM, first compound 0.003 µM) 94.9%; (second compound 0.1 µM, first compound 0.00949 µM) 98%; (second compound 0.1 µM, first compound 0.03 µM) 95.9%; (second compound 0.1 µM, first compound 0.0949 µM) 97%; (second compound 0.1 µM, first compound 0.3 µM) 93.8%. The viability, T/C runs as follows: (second compound 0.316 µM, first compound 0.000949 µM) 104%; (second compound 0.316 µM, first compound 0.003 µM) 97.7%; (second compound 0.316 µM, first compound 0.00949 µM) 97.7%; (second compound 0.316 µM, first compound 0.03 µM) 99.8%; (second compound 0.316 µM, first compound 0.0949 µM) 95.4%; (second compound 0.316 µM, first compound 0.3 µM) 101%. Besides, the viability, T/C (second compound 1 µM, first compound 0.000949 µM) is 100%; the viability, T/C (second compound 1 µM, first compound 0.003 µM) was 100%; the viability, T/C (second compound 1 µM, first compound 0.00949 µM) is 92.5%; the viability, T/C (second compound 1 µM, first compound 0.03 µM) is 98.2%; the viability, T/C (second compound 1 µM, first compound 0.0949 µM) is 98%; the viability, T/C (second compound 1 µM, first compound 0.3 µM) was 92.6%. In addition, the viability, T/C reads like this: (second compound 3.16 µM, first compound 0.000949 µM) 98.9%; (second compound 3.16 µM, first compound 0.003 µM) 87.2%; (second compound 3.16 µM, first compound 0.00949 µM) 90.2%; (second compound 3.16 µM, first compound 0.03 µM) 86.3%; (second compound 3.16 µM, first compound 0.0949 µM) 93.7%; (second compound 3.16 µM, first compound 0.3 µM) 84.5%. The viability, T/C (second compound 10 µM, first compound 0.000949 µM) was 87.6%; the viability, T/C (second compound 10 µM, first compound 0.003 µM) is 80.8%; the viability, T/C (second compound 10 µM, first compound 0.00949 µM) was 82%; the viability, T/C (second compound 10 µM, first compound 0.03 µM) was 90.3%; the viability, T/C (second compound 10 µM, first compound 0.0949 µM) was 91.4%; the viability, T/C (second compound 10 µM, first compound 0.3 µM) is 78%.

As for `CC1(C)CCC(CN2CCN(c3ccc(C(=O)NS(=O)(=O)c4ccc(NCC5CCOCC5)c([N+](=O)[O-])c4)c(Oc4cnc5[nH]ccc5c4)c3)CC2)=C(c2ccc(Cl)cc2)C1` + CC(CO)NC(=O)c1cc(-c2ccc(Cl)cc2)nn(-c2cnn(C)c2)c1=O, the IC50 by setting is: under setting [1], 6.14 µM; under setting [2], 6.19 µM; under setting [3], 6.3 µM; under setting [4], 6.25 µM; under setting [5], 5.94 µM. The viability, T/C is, setting by setting: under setting [6], 104%; under setting [7], 100%; under setting [8], 110%; under setting [9], 97.8%; under setting [10], 102%; under setting [11], 11.8%. Besides, the viability, T/C runs as follows: under setting [12], 97.3%; under setting [13], 96.9%; under setting [14], 109%; under setting [15], 100%; under setting [16], 109%; under setting [17], 12.3%. Also, the viability, T/C reads like this: under setting [18], 101%; under setting [19], 103%; under setting [20], 103%; under setting [21], 109%; under setting [22], 106%; under setting [23], 13.2%. Further, the viability, T/C is 104% under setting [24]; 111% under setting [25]; 108% under setting [26]; 103% under setting [27]; 105% under setting [28]; 12.3% under setting [29]. The viability, T/C was 94.8% under setting [30]; 104% under setting [31]; 88.3% under setting [32]; 101% under setting [33]; 93.9% under setting [34]; 13.7% under setting [35].

With `Nc1ccccc1NC(=O)c1ccc(CNC(=O)OCc2cccnc2)cc1`, the viability, T/C is 86.3% and 105% and 90.3% (compound 0.0316 µM); 87.8% and 108% and 86.7% (compound 0.1 µM); 82.7% and 108% and 84.8% (compound 0.316 µM); 82.7% and 109% and 97.4% (compound 1 µM); 46.1% and 85.7% and 68.4% (compound 3.16 µM); 5.42% and 27.3% and 14.9% (compound 10 µM). The IC50 (curve of compound) was 2.8 µM and 6.39 µM and 4.69 µM.

With `CC1COCCN1c1cc(C2(S(C)(=N)=O)CC2)nc(-c2ccnc3[nH]ccc23)n1` (centres undefined), the viability, T/C (compound 0.0316 µM) is 93.4% and 101% and 98.8%; the viability, T/C (compound 0.1 µM) is 106% and 102% and 113%; the viability, T/C (compound 0.316 µM) is 99.9% and 101% and 88.2%; the viability, T/C (compound 1 µM) is 108% and 106% and 115%; the viability, T/C (compound 3.16 µM) is 125% and 124% and 123%; the viability, T/C (compound 10 µM) was 24.9% and 56.9% and 59.1%. Where the note is “curve of compound”, the half-maximal inhibitory concentration (IC50) is 7.02 µM and > 10 µM.

Take `Nc1ccccc1NC(=O)c1ccc(CNC(=O)OCc2cccnc2)cc1` + Cc1ccccc1N=Nc1ccc(NC(=O)c2ccnn2C)c(C)c1: the IC50 under setting [1] amounted to 6.31 µM; the IC50 under setting [2] came out at 6.25 µM; the 50% inhibitory concentration (IC50) under setting [3] was 6.86 µM; the IC50 under setting [4] stood at 6.01 µM; the IC50 under setting [5] is 4.29 µM. Besides, the viability, T/C was 101% under setting [6]; 106% under setting [7]; 100% under setting [8]; 107% under setting [9]; 78.4% under setting [10]; 31.1% under setting [11]. Moreover, the viability, T/C by setting is: under setting [12], 103%; under setting [13], 101%; under setting [14], 104%; under setting [15], 107%; under setting [16], 84%; under setting [17], 26.5%. Also, the viability, T/C under setting [18] was 106%; the viability, T/C under setting [19] was 105%; the viability, T/C under setting [20] was 109%; the viability, T/C under setting [21] is 111%; the viability, T/C under setting [22] is 91.2%; the viability, T/C under setting [23] is 29.8%. In addition, the viability, T/C runs as follows: under setting [24], 97.4%; under setting [25], 92.7%; under setting [26], 92.1%; under setting [27], 98%; under setting [28], 86.2%; under setting [29], 21.1%. The viability, T/C reads like this: under setting [30], 85.3%; under setting [31], 84.3%; under setting [32], 87.4%; under setting [33], 86.3%; under setting [34], 61.6%; under setting [35], 18.2%.
